In brackets after ≈: the same amount, converted by molar mass.
Experiments:
[1] = test system: Mycobacterium tuberculosis H37Rv (ATCC 27294); assay: Primary screen (dose response), Microplate Alamar Blue Assay (MABA), Level-I antituberculosis assay; assay type: cell-based; settings: M. tuberculosis H37Rv, BACTEC 12B medium, concentration reducing fluorescence 90% relative to controls
Method: Primary Screen (Dose Response): Determination of a 90% Inhibitory Concentration (IC90). The initial screen is conducted against Mycobacterium tuberculosis H37Rv (ATCC 27294) in BACTEC 12B medium using the Microplate Alamar Blue Assay (MABA). Compounds are tested in ten 2-fold dilutions, typically from 100 μg/mL to 0.19 μg/mL. The IC90 is defined as the concentration effecting a reduction in fluorescence of 90% relative to controls. This value is determined from the dose-response curve using a curve-fitting program. Any IC90 value of ≦10 μg/mL is considered “Active” for antitubercular activity.

CCCCCCOC(=O)c1ccc(OC2CC[C@@]3(C)C(=CC[C@H]4[C@@H]5CC[C@H]([C@H](C)C=C[C@@H](CC)C(C)C)[C@@]5(C)CC[C@@H]43)C2)cc1 (some centres unmarked) [Compound I, n-hexyl-p-stigmasteryloxy-benzoate]
CC50 (mammalian cell cytotoxicity) (VERO cells): 79.59 µg/mL (≈ 129 µM) | IC90 (90% inhibitory concentration) [1]: 6.25 µg/mL (≈ 10.1 µM)

— patent US8389503B2, “Steroidal antitubercular compounds” (priority 2011, dated 2013)
